Test results reported in PubChem BioAssay AID330 (DTP/NCI, 2004).
Several values for one entry are separate records, joined by “and”; a condition that tells them apart may be missing. Equal values may be shown once. Inconclusive results and toxic doses are left out. How the source made its calls: active means survival T/C of 150% or more; inactive means T/C below 125% in these data.

System: P388 leukemia ip, CD2F1 mice, survival T/C
Experiment: NCI In Vivo Anticancer Drug Screen. Data for tumor model P388 Leukemia (intraperitoneal) in CD2F1 (CDF1) mice
Details: endpoint: median survival time, higher = longer survival
Outline: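 Mice carrying the transplanted tumor received test compound or vehicle. Survival was recorded in each group, and the value is the treated-group measurement divided by that of the vehicle-treated control group.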

[1] = dose: 100.0 mg/kg/injection, schedule: Q01DX001 (ip), vehicle: Klucel (hydroxypropylcellulose) (HPC)
[2] = dose: 200.0 mg/kg/injection, schedule: Q01DX001 (ip), vehicle: Klucel (hydroxypropylcellulose) (HPC)
[3] = dose: 12.5 mg/kg/injection, schedule: Q01DX005 (ip), vehicle: saline
[4] = dose: 25.0 mg/kg/injection, schedule: Q01DX005 (ip), vehicle: saline
[5] = dose: 50.0 mg/kg/injection, schedule: Q01DX005 (ip), vehicle: saline
[6] = dose: 50.0 mg/kg/injection, schedule: Q01DX009 (ip), vehicle: saline with Tween-80
[7] = dose: 100.0 mg/kg/injection, schedule: Q01DX009 (ip), vehicle: saline with Tween-80
[8] = dose: 200.0 mg/kg/injection, schedule: Q01DX009 (ip), vehicle: saline with Tween-80
[9] = dose: 60.0 mg/kg/injection, schedule: Q01DX005 (ip), vehicle: saline with Tween-80
[10] = dose: 120.0 mg/kg/injection, schedule: Q01DX005 (ip), vehicle: saline with Tween-80
[11] = dose: 240.0 mg/kg/injection, schedule: Q01DX005 (ip), vehicle: saline with Tween-80
[12] = dose: 50.0 mg/kg/injection, schedule: Q01DX005 (ip), vehicle: Klucel (hydroxypropylcellulose) (HPC)
[13] = dose: 100.0 mg/kg/injection, schedule: Q01DX005 (ip), vehicle: Klucel (hydroxypropylcellulose) (HPC)
[14] = dose: 200.0 mg/kg/injection, schedule: Q01DX005 (ip), vehicle: Klucel (hydroxypropylcellulose) (HPC)
[15] = dose: 50.0 mg/kg/injection, schedule: Q01DX005 (ip), vehicle: saline with Tween-80
[16] = dose: 100.0 mg/kg/injection, schedule: Q01DX005 (ip), vehicle: saline with Tween-80
[17] = dose: 200.0 mg/kg/injection, schedule: Q01DX005 (ip), vehicle: saline with Tween-80
[18] = dose: 50.0 mg/kg/injection, schedule: Q01DX009 (ip), vehicle: Klucel (hydroxypropylcellulose) (HPC)
[19] = dose: 100.0 mg/kg/injection, schedule: Q01DX009 (ip), vehicle: Klucel (hydroxypropylcellulose) (HPC)
[20] = dose: 200.0 mg/kg/injection, schedule: Q01DX009 (ip), vehicle: Klucel (hydroxypropylcellulose) (HPC)

Measured: T/C

Cc1ccc(N2CC(=O)N3CCCN3C(=O)C2)cc1
inactive: dose: 6.25 mg/kg/injection, schedule: Q01DX005 (ip), vehicle: saline with Tween-80 98 % of control | dose: 12.5 mg/kg/injection, schedule: Q01DX005 (ip), vehicle: saline with Tween-80 100 % of control | dose: 25.0 mg/kg/injection, schedule: Q01DX005 (ip), vehicle: saline with Tween-80 102 % of control

Nc1nc2ccccc2n1/N=C/c1ccccc1[N+](=O)[O-]
inactive: [1] 90 % of control | [2] 100 % of control | dose: 400.0 mg/kg/injection, schedule: Q01DX001 (ip), vehicle: Klucel (hydroxypropylcellulose) (HPC) 98 % of control

C=C(C)C1CCC2(C1)C(C)=CCCC2C (stereo not given)
inactive: [3] 107 % of control | [4] 99 % of control | [5] 108 % of control | dose: 100.0 mg/kg/injection, schedule: Q01DX005 (ip), vehicle: saline 100 % of control | dose: 200.0 mg/kg/injection, schedule: Q01DX005 (ip), vehicle: saline 99 % of control

CC(=O)OCC1OC(OC(C)=O)C(NC(=O)CN(Cc2ccccc2)S(C)(=O)=O)C(OC(C)=O)C1OC(C)=O (stereo not given)
inactive: dose: 12.5 mg/kg/injection, schedule: Q01DX009 (ip), vehicle: other 91 % of control | dose: 25.0 mg/kg/injection, schedule: Q01DX009 (ip), vehicle: other 99 % of control | dose: 50.0 mg/kg/injection, schedule: Q01DX009 (ip), vehicle: other 96 % of control | dose: 100.0 mg/kg/injection, schedule: Q01DX009 (ip), vehicle: other 93 % of control | dose: 200.0 mg/kg/injection, schedule: Q01DX009 (ip), vehicle: other 105 % of control

Cc1cc(N/N=C/c2ccc(N(CCCl)CCCl)cc2)c2cc3c(cc2n1)OCO3
inactive: dose: 25.0 mg/kg/injection, schedule: Q04DX003 (ip), vehicle: saline with Tween-80 111 % of control

CC(=O)Nc1ccc(-c2cn3ccccc3n2)cc1
inactive: [6] 100 % of control | [7] 92 % of control | [8] 106 % of control

NNC(=O)C(=O)NCc1ccco1
inactive: dose: 12.5 mg/kg/injection, schedule: Q01DX009 (ip), vehicle: saline with Tween-80 88 % of control | dose: 25.0 mg/kg/injection, schedule: Q01DX009 (ip), vehicle: saline with Tween-80 98 % of control | [6] 95 % of control

O=C1Sc2ccccc2C(=O)N2CCCC12 (stereo not given)
inactive: [9] 97 % of control | [10] 99 % of control | [11] 100 % of control

COc1cccc2c1C(=O)c1c(O)c(COC3CC(N)C(O)C(C)O3)cc(O)c1C2=O (stereo not given)
inactive: dose: 1.56 mg/kg/injection, schedule: Q04DX003 (ip), vehicle: water 96 % of control | dose: 3.13 mg/kg/injection, schedule: Q04DX003 (ip), vehicle: water 96 % of control | dose: 6.25 mg/kg/injection, schedule: Q04DX003 (ip), vehicle: water 104 % of control | dose: 12.5 mg/kg/injection, schedule: Q04DX003 (ip), vehicle: water 101 % of control | dose: 25.0 mg/kg/injection, schedule: Q04DX003 (ip), vehicle: water 95 % of control

CCc1nn(Cc2ccccc2)c2nc(C)c(CCc3ccccc3)c(Cl)c12
inactive: dose: 60.0 mg/kg/injection, schedule: Q01DX005 (ip), vehicle: Klucel (hydroxypropylcellulose) (HPC) 92 % of control | dose: 120.0 mg/kg/injection, schedule: Q01DX005 (ip), vehicle: Klucel (hydroxypropylcellulose) (HPC) 91 % of control | dose: 240.0 mg/kg/injection, schedule: Q01DX005 (ip), vehicle: Klucel (hydroxypropylcellulose) (HPC) 94 % of control

CC1=C(C(=O)CC(=O)C(=O)Nc2ccc(C)cc2)Sc2ccccc2N1
inactive: [9] 105 % of control | [10] 108 % of control | [11] 106 % of control

CCOC(=O)CC/C(=C/c1cccc2cc(OC)ccc12)[N+](=O)[O-]
inactive: dose: 50.0 mg/kg/injection, schedule: Q01DX001 (ip), vehicle: Klucel (hydroxypropylcellulose) (HPC) 100 % of control | [1] 101 % of control | [2] 104 % of control

CCOC(=O)C1=S=C(SC)N(C)C1=O
inactive: [6] 107 % of control | [7] 107 % of control

CCCCN(Cc1c(O)ccc2ccccc12)Cc1c(O)ccc2ccccc12
inactive: [12] 95 % of control | [13] 97 % of control | [14] 94 % of control

O=C(NCN1CCOCC1)Nc1ccccc1
inactive: [15] 115 % of control | [16] 115 % of control | [17] 112 % of control

Nc1cc2nc3ccccc3c(=O)n2[nH]1
inactive: [12] 98 % of control | [13] 91 % of control | [14] 86 % of control

O=C(N=C(Oc1ccccc1)Oc1ccccc1)N=C(Oc1ccccc1)Oc1ccccc1
inactive: [12] 94 % of control | [13] 88 % of control | [14] 91 % of control

CCSc1nc2ccc(CN3C(=O)c4ccccc4C3=O)cc2s1
inactive: [18] 92 % of control | [19] 89 % of control | [20] 86 % of control

O=[N+]([O-])c1ccc([S][Sn]([c]2ccccc2)([c]2ccccc2)[c]2ccccc2)cc1
inactive: dose: 50.0 mg/kg/injection, schedule: Q04DX003 (ip), vehicle: saline 101 % of control and 92 % of control | dose: 100.0 mg/kg/injection, schedule: Q04DX003 (ip), vehicle: saline 98 % of control and 104 % of control and 109 % of control | dose: 200.0 mg/kg/injection, schedule: Q04DX003 (ip), vehicle: saline 108 % of control and 109 % of control and 110 % of control | dose: 400.0 mg/kg/injection, schedule: Q04DX003 (ip), vehicle: saline 101 % of control and 102 % of control and 120 % of control

Cc1nc2cc(C)[nH]c(=O)n2n1
inactive: [15] 105 % of control | [16] 107 % of control | [17] 104 % of control

O=S(=O)(NC(Cc1nc2ccccc2[nH]1)c1nc2ccccc2[nH]1)c1ccccc1 (stereo not given)
inactive: [6] 95 % of control | [7] 89 % of control | [8] 93 % of control

C1CC1c1nn[nH]n1
inactive: [18] 109 % of control | [19] 110 % of control | [20] 107 % of control

Fc1ccc(Oc2ccc(F)cc2)cc1
inactive: dose: 50.0 mg/kg/injection, schedule: Q04DX003 (ip), vehicle: saline with Tween-80 106 % of control | dose: 100.0 mg/kg/injection, schedule: Q04DX003 (ip), vehicle: saline with Tween-80 107 % of control | dose: 200.0 mg/kg/injection, schedule: Q04DX003 (ip), vehicle: saline with Tween-80 111 % of control | dose: 400.0 mg/kg/injection, schedule: Q04DX003 (ip), vehicle: saline with Tween-80 109 % of control

CCN(CC)c1cc2oc3cc(N)cc(=N)c-3nc2cc1C
inactive: [3] 102 % of control | [4] 98 % of control | [15] 112 % of control | [5] 96 % of control | [16] 107 % of control | [17] 102 % of control
